According to patent US20260374754A1, “N-((ISOQUINOLIN-6-YL)METHYL)-1H-PYRAZOLE-4-CARBOXAMIDE DERIVATIVES AS PLASMA KALLIKREIN INHIBITORS FOR THE TREATMENT OF HEREDITARY ANGIODEMA” (Takeda Pharmaceutical Company Limited, priority 2022, published 2026):

Molecular target: human activated kallikrein enzyme (Homo sapiens, UniProt P03952)
Assay: Inhibition of human activated plasma kallikrein, fluorogenic PFR-AMC substrate, 500 pM enzyme format
Format: biochemical
Settings: 500 pM activated kallikrein; 300 μM PFR-AMC; 30 min preincubation; 10 min room temperature; pH 7.5; read-out: Primary Dose Response Assay: Average EC50
Protocol: Compounds were evaluated for inhibition of the human activated kallikrein enzyme in two formats of an assay employing a fluorogenic peptide substrate. In one assay format, the concentrations of reagents were as follows: 20 mM Tris pH 7.5, 1 mM EDTA, 150 mM sodium chloride, 0.1% PEG-400, 0.1% Triton X-100, 500 pM activated kallikrein enzyme, 300 μM Pro-Phe-Arg-7-amido-4-methylcoumarin (PFR-AMC) substrate. Prior to reaction initiation with substrate, enzyme and inhibitors were preincubated for 30 min at room temperature. After initiation with substrate, reactions were incubated for 10 min at room temperature and fluorescence emission at 460 nm from 380 nm excitation measured with a microplate reader. In another assay format, the concentrations of reagents were as follows: 20 mM Tris pH 7.5, 1 mM EDTA, 150 mM sodium chloride, 0.1% PEG-400, 0.1% Triton X-100, 5 pM activated kallikrein enzyme, 300 uM PFR-AMC substrate. Prior to reaction initiation with substrate, enzyme and inhibitors were preincubated for 30 min at room temperature. After initiation with substrate, reactions were incubated for 18 hr at room temperature and fluorescence emission at 460 nm from 380 nm excitation measured with a microplate reader.
Table 35 provides the results of the assay in the format with 500 pM activated kallikrein assay.

Sequence of human activated kallikrein enzyme (P03952 391-638 limits assumed): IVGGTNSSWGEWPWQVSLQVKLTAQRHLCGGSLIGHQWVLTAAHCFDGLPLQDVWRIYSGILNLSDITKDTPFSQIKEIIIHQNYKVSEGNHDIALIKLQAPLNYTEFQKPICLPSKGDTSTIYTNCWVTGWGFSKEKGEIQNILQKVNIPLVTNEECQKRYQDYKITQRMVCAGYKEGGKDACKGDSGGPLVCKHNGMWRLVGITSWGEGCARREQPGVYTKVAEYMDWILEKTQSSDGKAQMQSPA
Sequence of human activated kallikrein enzyme (P03952 20-390 partner limits assumed): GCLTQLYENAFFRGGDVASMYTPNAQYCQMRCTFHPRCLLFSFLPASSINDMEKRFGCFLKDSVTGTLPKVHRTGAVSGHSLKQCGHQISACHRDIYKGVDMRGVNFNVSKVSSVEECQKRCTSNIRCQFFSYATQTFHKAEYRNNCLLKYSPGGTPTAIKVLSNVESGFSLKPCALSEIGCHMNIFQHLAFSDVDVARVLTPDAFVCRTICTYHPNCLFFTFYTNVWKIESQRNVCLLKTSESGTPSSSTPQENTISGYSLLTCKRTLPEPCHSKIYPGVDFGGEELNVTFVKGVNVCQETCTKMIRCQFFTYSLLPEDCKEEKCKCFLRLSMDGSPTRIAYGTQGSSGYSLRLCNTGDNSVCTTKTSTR

| Compound | EC50 [nM] |
| --- | --- |
| Cc1cc2c(N)nccc2cc1CNc1cc(OCc2ccc(Cn3cccn3)cc2)ncn1 [Example 534, 6-(((6-((4-((1H-pyrazol-1-yl)methyl)benzyl)oxy)pyrimidin-4-yl)amino)methyl)-7-methylisoquinolin-1-amine] | 10 to 100 |
| Cc1ccc2cnc(Cn3cc(C(=O)NCc4c(C)cc5c(N)nccc5c4C)cn3)cc2c1 [Example 1, N-((1-amino-5,7-dimethylisoquinolin-6-yl)methyl)-1-((6-methylisoquinolin-3-yl)methyl)-1H-pyrazole-4-carboxamide] | < 1 |
| CCOC(=O)CCc1nc(NCc2c(C)cc3c(N)nccc3c2C)cc(OCc2cn3cc(C4CC4)cnc3n2)n1 [Example 291, ethyl 3-(4-(((1-amino-5,7-dimethylisoquinolin-6-yl)methyl)amino)-6-((6-cyclopropylimidazo[1,2-a]pyrimidin-2-yl)methoxy)pyrimidin-2-yl)propanoate] | 1 to 10 |
| Cc1cc2c(N)nccc2c(C)c1CNC(=O)c1cnn(Cc2cn3c(C)c(C4CC4)ccc3n2)c1 [Example 104, N-((1-amino-5,7-dimethylisoquinolin-6-yl)methyl)-1-((6-cyclopropyl-5-methylimidazo[1,2-a]pyridin-2-yl)methyl)-1H-pyrazole-4-carboxamide] | < 1 |
| Cc1cc2c(N)nccc2c(C)c1CNC(=O)c1cnn(Cc2ccc(C3(C(=O)N4CCCC4)CC3)cc2)c1 [Example 122, N-((1-amino-5,7-dimethylisoquinolin-6-yl)methyl)-1-(4-(1-(pyrrolidine-1-carbonyl)cyclopropyl)benzyl)-1H-pyrazole-4-carboxamide] | < 1 |
| CCc1cc2c(N)nccc2c(C)c1CNC(=O)c1cnn(Cc2ccccc2)c1 [Example 173, N-((1-amino-7-ethyl-5-methylisoquinolin-6-yl)methyl)-1-benzyl-1H-pyrazole-4-carboxamide] | 10 to 100 |
| Cc1cc2c(N)nccc2c(C)c1CNC(=O)c1ccnc(C(=O)c2cn3cc(C4CC4)ccc3n2)c1 [Example 189, N-((1-amino-5,7-dimethylisoquinolin-6-y1)methyl)-2-(6-cyclopropylimidazo[1,2-a]pyridine-2-carbonyl)isonicotinamide] | 100 to 1000 |
| Cc1cc2c(N)nccc2c(C)c1CNC(=O)c1cc(CN)nn1Cc1ccccc1 [Example 202, N-((1-amino-5,7-dimethylisoquinolin-6-yl)methyl)-3-(aminomethyl)-1-benzyl-1H-pyrazole-5-carboxamide] | > 1000 |
| Cc1cc2c(N)nccc2c(C)c1CNC(=O)c1cn(Cc2cn3cc(C4CC4)ccc3n2)nc1C(F)F [Example 199, N-((1-amino-5,7-dimethylisoquinolin-6-y1)methyl)-1-((6-cyclopropylimidazo[1,2-a]pyridin-2-y1)methyl)-3-(difluoromethyl)-1H-pyrazole-4-carboxamide] | < 1 |
| Cc1cc2c(N)nccc2c(C)c1CNc1cncc(NCc2ccc(Cn3cccn3)cc2)n1 [Example I-476, N^2-(4-((1H-pyrazol-1-yl)methyl)benzyl)-N^6-((1-amino-5,7-dimethylisoquinolin-6-yl)methyl)pyrazine-2,6-diamine] | 10 to 100 |
| Cc1cc2c(N)nccc2c(C)c1CNC(=O)c1cnn(Cc2cn3cc(C4CC4)cc(Cc4nnco4)c3n2)c1 [Example 172, 1-((8-((1,3,4-oxadiazol-2-yl)methyl)-6-cyclopropylimidazo[1,2-a]pyridin-2-y1)methyl)-N-((1-amino-5,7-dimethylisoquinolin-6-y1)methyl)-1H-pyrazole-4-carboxamide] | < 1 |
| Cc1ccc2ncc(COc3cnnc(NCc4c(C)cc5c(N)nccc5c4C)c3)cc2c1 [Example 408, 5,7-dimethyl-6-(((5-((6-methylquinolin-3-yl)methoxy)pyridazin-3-yl)amino)methyl)isoquinolin-1-amine] | < 1 |
| Cc1cc2c(N)nccc2c(C)c1CNc1cc(OCc2csc(-c3ccccc3)n2)cnn1 [Example 430, 5,7-dimethyl-6-(((5-((2-phenylthiazol-4-yl)methoxy)pyridazin-3-yl)amino)methyl)isoquinolin-1-amine] | 10 to 100 |
| Cc1cc2c(N)nccc2c(C)c1CNc1cc(N(Cc2ccc(Cn3cccn3)cc2C(F)(F)F)N=O)ncn1 [Example 381, N-(4-((1H-pyrazol-1-yl)methyl)-2-(trifluoromethyl)benzyl)-N-(6-(((1-amino-5,7-dimethylisoquinolin-6-yl)methyl)amino)pyrimidin-4-yl)nitrous amide] | 10 to 100 |
| Cc1cc2c(N)nccc2c(C)c1CNc1cc(NCc2ccc(Cc3ncnn3C)cc2)ncn1 [Example 342, N^4-((1-amino-5,7-dimethylisoquinolin-6-yl)methyl)-N^6-(4-((1-methyl-1H-1,2,4-triazol-5-yl)methyl)benzyl)pyrimidine-4,6-diamine] | < 1 |
| Cc1cc2c(N)nccc2c(C)c1CNC(=O)c1cnn(Cc2cncnc2)c1 [Example 77, N-((1-amino-5,7-dimethylisoquinolin-6-yl)methyl)-1-(pyrimidin-5-ylmethyl)-1H-pyrazole-4-carboxamide] | 100 to 1000 |
| Cc1cc2c(N)nccc2c(C)c1CNc1cc(N(C)Cc2cnc3ccccc3c2)ncn1 [Example 316, N^4-((1-amino-5,7-dimethylisoquinolin-6-yl)methyl)-N^6-methyl-N^6-(quinolin-3-ylmethyl)pyrimidine-4,6-diamine] | 10 to 100 |
| Cc1cc2c(N)nccc2c(C)c1CNC(=O)c1cnn(Cc2ccccc2F)c1 [Example 38, N-((1-amino-5,7-dimethylisoquinolin-6-yl)methyl)-1-(2-fluorobenzyl)-1H-pyrazole-4-carboxamide] | > 1000 |
| CCOC(=O)Nc1nccc2c(C)c(CNC(=O)c3cnn(Cc4ccc5ncc(Cl)cc5c4)c3)c(C)cc12 [Example 132, ethyl (6-((1-((3-chloroquinolin-6-yl)methyl)-1H-pyrazole-4-carboxamido)methyl)-5,7-dimethylisoquinolin-1-yl)carbamate] | 10 to 100 |

The remaining lines, values ahead:

| EC50 [nM] | Compound |
| --- | --- |
| 100 to 1000 | Cc1ccccc1Cn1cc(C(=O)NCc2c(C)cc3c(N)nccc3c2C)cn1 [Example 40, N-((1-amino-5,7-dimethylisoquinolin-6-yl)methyl)-1-(2-methylbenzyl)-1H-pyrazole-4-carboxamide] |
| 1 to 10 | Cc1cc2c(N)nccc2c(C)c1CNc1cc(OCc2ccc3c(cnn3C)c2)cnn1 [Example 413, 5,7-dimethyl-6-(((5-((1-methyl-1H-indazol-5-yl)methoxy)pyridazin-3-yl)amino)methyl)isoquinolin-1-amine] |
| 1 to 10 | Cc1cc2c(N)nccc2c(C)c1CNc1cc(NCc2cn3cc(C#N)ccc3n2)ncn1 [Example 332, 2-(((6-(((1-amino-5,7-dimethylisoquinolin-6-yl)methyl)amino)pyrimidin-4-yl)amino)methyl)imidazo[1,2-a]pyridine-6-carbonitrile] |
| 100 to 1000 | Cc1cc2c(N)nccc2c(C)c1CNC(=O)c1cnn(C(CN)c2ccccc2)c1 (stereo not drawn) [Example 180, 1-(2-amino-1-phenylethyl)-N-((1-amino-5,7-dimethylisoquinolin-6-yl)methyl)-1H-pyrazole-4-carboxamide] |
| 1 to 10 | Cc1cc2c(N)nccc2c(C)c1CNc1nccc(OCc2ccc(Cn3ccccc3=O)cc2)n1 [Example I-478, 1-(4-(((2-(((1-amino-5,7-dimethylisoquinolin-6-yl)methyl)amino)pyrimidin-4-yl)oxy)methyl)benzyl)pyridin-2(1H)-one] |
| < 1 | Cc1ccc2nc(C(C)n3cc(C(=O)NCc4c(C)cc5c(N)nccc5c4C)cn3)cn2c1 (stereo not drawn) [Example 13, N-((1-amino-5,7-dimethylisoquinolin-6-yl)methyl)-1-(1-(6-methylimidazo[1,2-a]pyridin-2-yl)ethyl)-1H-pyrazole-4-carboxamide] |
| < 1 | Cc1cc2c(N)nccc2c(C)c1CNc1nccc2cn(Cc3cn4cc(C5CC5)cnc4n3)nc12 [Example 264, 6-(((2-((6-cyclopropylimidazo[1,2-a]pyrimidin-2-yl)methyl)-2H-pyrazolo[3,4-c]pyridin-7-yl)amino)methyl)-5,7-dimethylisoquinolin-1-amine] |
| 100 to 1000 | Cc1cc2c(N)nccc2c(C)c1CNc1ncnc2c1nc(Cc1ccc3ncc(Cl)cc3c1)n2C [Example 539, 6-(((8-((3-chloroquinolin-6-yl)methyl)-9-methyl-9H-purin-6-yl)amino)methyl)-5,7-dimethylisoquinolin-1-amine] |
| < 1 | Cc1cc2c(N)nccc2c(C)c1CNC(=O)c1cnn(Cc2cn3c(F)c(C4CC4)ccc3n2)c1 [Example 142, N-((1-amino-5,7-dimethylisoquinolin-6-yl)methyl)-1-((6-cyclopropyl-5-fluoroimidazo[1,2-a]pyridin-2-yl)methyl)-1H-pyrazole-4-carboxamide] |
| < 1 | CNc1nccc2c(C)c(CNC(=O)c3cnn(Cc4cn5cc(C6CC6)ccc5n4)c3)c(C)cc12 [Example 134, 1-((6-cyclopropylimidazo[1,2-a]pyridin-2-yl)methyl)-N-((5,7-dimethyl-1-(methylamino)isoquinolin-6-yl)methyl)-1H-pyrazole-4-carboxamide] |
| 1 to 10 | Cc1cc2c(N)nccc2c(C)c1CNc1cc(OCc2ccc3nccc(C)c3c2)cnn1 [Example 421, 5,7-dimethyl-6-(((5-((4-methylquinolin-6-yl)methoxy)pyridazin-3-yl)amino)methyl)isoquinolin-1-amine, formic acid] |
